Test: Solubility of FT4 compounds and polymer in organic solvents
Format: physicochemical
Settings: for solubility in diethyl ether / solubility in hexane: room temperature
Text: Table 2 provides solubility properties and a solubility comparison of di-Br compound 7 and di-tin compound 8.

SMILES | solubility in hexane, toluene, CH2Cl2, or mixtures thereof (compared to the corresponding di-bromo compound Br-DC17FT4-Br) | solubility in diethyl ether | solubility in hexane | solubility in direct comparisons to compound 8 (Table 2 solvents)
CCCCCCCCCCCCCCCCCc1[c]([Sn]([CH3])([CH3])[CH3])sc2c1sc1c3s[c]([Sn]([CH3])([CH3])[CH3])c(CCCCCCCCCCCCCCCCC)c3sc21 [compound 8] | excellent solubility | freely soluble | freely soluble | 
CCCCCCCCCCCCCCCCCc1c(Br)sc2c1sc1c3sc(Br)c(CCCCCCCCCCCCCCCCC)c3sc21 [compound 7] |  | practically insoluble | practically insoluble | essentially insoluble or only partially soluble
